Experimental data taken from US20200115357A1, “LIVER X RECEPTORS (LXR) MODULATORS” (Phenex-FXR GmbH, priority 2017, published 2020).

Tests used:
[1] = biological target: T1, LXRβ ligand-binding domain (LBD) (Homo sapiens, UniProt P55055, DUP175-175); assay: LXR Gal4 reporter transient transfection assay (M2H), Gal4β LBD; type: cell-based; settings: HEK293 cells; read-out: M2H Gal4β LBD activity range (EC50)
T1 construct: LXRβ (amino acids 156-461); expressed in transfected cells; host or cells: HEK293
T1 sequence (P55055 with tags, fused parts or gaps DUP175-175): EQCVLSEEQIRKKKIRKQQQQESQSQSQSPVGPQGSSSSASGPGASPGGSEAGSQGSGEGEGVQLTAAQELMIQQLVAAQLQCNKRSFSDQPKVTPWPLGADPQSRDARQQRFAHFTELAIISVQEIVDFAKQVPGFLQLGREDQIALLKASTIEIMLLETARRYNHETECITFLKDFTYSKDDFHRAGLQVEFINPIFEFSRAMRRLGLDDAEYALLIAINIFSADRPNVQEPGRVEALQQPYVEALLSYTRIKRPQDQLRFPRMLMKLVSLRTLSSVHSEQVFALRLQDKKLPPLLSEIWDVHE
Method: (§1) The tested compounds were usually dissolved, tested and stored as 20 mM stock solutions in DMSO. Since sulfonyl acetic acid derivatives tend to decarboxylate under these conditions, these stock solutions were prepared, tested and stored as 20 mM DMSO stock solutions containing 100 mM trifluoroacetic acid (5 equivalents). Sulfonyl acetic acid derivatives are shelf stable as solid at rt for long time as reported by Griesbrecht et al. (Synlett 2010:374) or Faucher et al. (J. Med. Chem. 2004; 47:18).
(§2) LXR Gal4 Reporter Transient Transfection Assays
(§3) LXRα and LXRβ activity status was determined via detection of interaction with coactivator and corepressor proteins in mammalian two-hybrid experiments (M2H). For this, via transient transfection the full length (FL) proteins of LXRα (amino acids 1-447; NP005684; SEQ ID NO:7) or LXRβ-(amino acids 1-461; NP009052; SEQ ID NO:8) or the ligand-binding domains (LBD) of LXRα (amino acids 155-447 SEQ ID NO:3) or LXRβ (amino acids 156-461; SEQ ID NO:4) were expressed from pCMV-AD (Stratagene) as fusions to the transcriptional activation domain of NFkB. As cofactors, domains of either the steroid receptor coactivator 1 (SRC1; amino acids 552-887; SEQ ID NO:5) or of the corepressor NCoR (amino acids 1903-2312 SEQ ID NO:6) were expressed as fusions to the DNA binding domain of the yeast transcription factor GAL4 (from pCMV-BD; Stratagene). Interaction was monitored via activation of a coexpressed Firefly Luciferase Reporter gene under control of a promoter containing repetitive GAL4 response elements (vector pFRLuc; Stratagene). Transfection efficiency was controlled via cotransfection of constitutively active pRL-CMV Renilla reniformis luciferase reporter (Promega). HEK293 cells were grown in minimum essential medium (MEM) with 2 mM L-glutamine and Earle's balanced salt solution supplemented with 8.3% fetal bovine serum, 0.1 mM non-essential amino acids, 1 mM sodium pyruvate, at 37° C. in 5% CO2. 3.5×10^4 cells/well were plated in 96-well cell culture plates in growth medium supplemented with 8.3% fetal bovine serum for 16-20 h to ˜90% confluency. For transfection, medium was taken off and LXR and cofactor expressing plasmids as well as the reporter plasmids are added in 30 μL OPTIMEM/well including polyethylene-imine (PEI) as vehicle. Typical amounts of plasmids transfected/well: pCMV-AD-LXR (5 ng), pCMV-BD-cofactor (5 ng), pFR-Luc (100 ng), pRL-CMV (0.5 ng). Compound stocks were prepared in DMSO, prediluted in MEM to a total volume of 120 μL, and added 4 h after addition of the transfection mixture (final vehicle concentration not exceeding 0.2%). Cells were incubated for additional 16 h, lysed for 10 min in 1× Passive Lysis Buffer (Promega) and Firefly and Renilla luciferase activities were measured sequentially in the same cell extract using buffers containing D-luciferine and coelenterazine, respectively. Measurements of luminescence were done in a BMG-Iuminometer.

[2] = biological target: T2, GST-LXRβ ligand-binding domain (Homo sapiens, UniProt P55055, DUP175-175); assay: TR-FRETβ activity assay (LXRβ-LBD / NCoA3 coactivator peptide, prestimulated with 24(S)-25-epoxycholesterol); type: biochemical; parameters: key to behavior in FRET assay: ag=agonist; ia=inverse agonist; settings: for EC50: 1 μM 24(S)-25-epoxycholesterol as prestimulating agonist, read-out: FRETβ activity range (EC50); for behavior in FRET assay: agonist or inverse agonist
T2 construct: amino acids 156-461; NP009052; made in house; host or cells: E. coli
T2 sequence (P55055 with tags, fused parts or gaps DUP175-175): T1 sequence (P55055 with tags, fused parts or gaps DUP175-175)
Method: The tested compounds were usually dissolved, tested and stored as 20 mM stock solutions in DMSO. […] Sulfonyl acetic acid derivatives are shelf stable as solid at rt for long time as reported by Griesbrecht et al. (Synlett 2010:374) or Faucher et al. (J. Med. Chem. 2004; 47:18). TR-FRETβ Activity Assay Recombinant GST-LXRβ ligand-binding domain (LBD; amino acids 156-461; NP009052; SEQ ID NO:2) was expressed in E. coli and purified via gluthatione-sepharose affinity chromatography. N-terminally biotinylated NCoA3 coactivator peptide (SEQ ID NO:1) was chemically synthesized (Eurogentec). […] Finally, a detection mix was added containing anti GST-Tb cryptate (CisBio; 610SAXLB) and Streptavidin-XL665 (CisBio; 610SAXLB) as fluorescent donor and acceptor, respectively, as well as the coactivator peptide and LXRβ-LBD protein (SEQ ID NO:2). The reaction was mixed thoroughly, equilibrated for 1 h at 4° C. and vicinity of LXRβ and coactivator peptide was detected by measurement of fluorescence in a VictorX4 multiplate reader (PerkinElmer Life Science) using 340 nm as excitation and 615 and 665 nm as emission wavelengths. Assays were performed in triplicates. Final Assay Concentrations of Components: 240 mM KCl, 1 μg/μL BSA, 0.002% Triton-X-100, […] anti GST-Tb cryptate, 2.5 ng/μL Streptavidin-XL665, coactivator peptide (400 nM), LXRβ protein ([…], i.e. 76 nM)

[3] = biological target: T3, LXRα ligand-binding domain (LBD) (Homo sapiens, UniProt Q13133); assay: LXR Gal4 reporter transient transfection assay (M2H), Gal4α LBD; type: cell-based; settings: HEK293 cells; read-out: M2H Gal4α LBD activity range (EC50)
T3 construct: expressed in transfected cells; host or cells: HEK293
T3 sequence (Q13133 155-447): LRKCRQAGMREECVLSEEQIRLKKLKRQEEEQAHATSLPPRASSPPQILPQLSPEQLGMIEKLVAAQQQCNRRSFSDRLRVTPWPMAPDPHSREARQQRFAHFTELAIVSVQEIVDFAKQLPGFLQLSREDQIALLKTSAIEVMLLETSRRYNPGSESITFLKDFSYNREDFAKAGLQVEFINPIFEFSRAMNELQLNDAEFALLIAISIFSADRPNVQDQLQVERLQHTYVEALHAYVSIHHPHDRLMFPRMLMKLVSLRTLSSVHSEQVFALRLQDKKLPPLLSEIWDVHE
Method: as §1, §2, §3

[4] = biological target: T4, LXRβ full length (FL) (Homo sapiens, UniProt P55055, DUP175-175); assay: LXR Gal4 reporter transient transfection assay (M2H), Gal4β FL; type: cell-based; settings: HEK293 cells; read-out: M2H Gal4β FL activity range (EC50)
T4 construct: the full length (FL) proteins of LXRα (amino acids 1-447); NP005684; NP009052; expressed in transfected cells; host or cells: HEK293
T4 sequence (P55055 with tags, fused parts or gaps DUP175-175): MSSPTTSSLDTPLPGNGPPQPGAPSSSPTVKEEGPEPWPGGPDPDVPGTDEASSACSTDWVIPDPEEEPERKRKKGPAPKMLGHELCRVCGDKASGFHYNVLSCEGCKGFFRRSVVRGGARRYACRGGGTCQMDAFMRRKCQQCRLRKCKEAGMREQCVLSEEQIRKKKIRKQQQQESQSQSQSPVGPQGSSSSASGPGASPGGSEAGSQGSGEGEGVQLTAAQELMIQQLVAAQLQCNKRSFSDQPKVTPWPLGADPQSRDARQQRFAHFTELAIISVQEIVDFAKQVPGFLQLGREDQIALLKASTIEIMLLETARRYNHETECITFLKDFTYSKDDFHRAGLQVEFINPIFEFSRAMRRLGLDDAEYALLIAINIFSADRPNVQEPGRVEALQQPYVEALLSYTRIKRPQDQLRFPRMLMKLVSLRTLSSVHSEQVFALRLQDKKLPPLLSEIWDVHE
Method: as §1, §2, §3

[5] = biological target: T5, LXRα full length (FL) (Homo sapiens, UniProt Q13133); assay: LXR Gal4 reporter transient transfection assay (M2H), Gal4α FL; type: cell-based; settings: HEK293 cells; read-out: M2H Gal4α FL activity range (EC50)
T5 construct: the full length (FL) proteins of LXRα (amino acids 1-447); NP005684; expressed in transfected cells; host or cells: HEK293
T5 sequence (Q13133 1-447): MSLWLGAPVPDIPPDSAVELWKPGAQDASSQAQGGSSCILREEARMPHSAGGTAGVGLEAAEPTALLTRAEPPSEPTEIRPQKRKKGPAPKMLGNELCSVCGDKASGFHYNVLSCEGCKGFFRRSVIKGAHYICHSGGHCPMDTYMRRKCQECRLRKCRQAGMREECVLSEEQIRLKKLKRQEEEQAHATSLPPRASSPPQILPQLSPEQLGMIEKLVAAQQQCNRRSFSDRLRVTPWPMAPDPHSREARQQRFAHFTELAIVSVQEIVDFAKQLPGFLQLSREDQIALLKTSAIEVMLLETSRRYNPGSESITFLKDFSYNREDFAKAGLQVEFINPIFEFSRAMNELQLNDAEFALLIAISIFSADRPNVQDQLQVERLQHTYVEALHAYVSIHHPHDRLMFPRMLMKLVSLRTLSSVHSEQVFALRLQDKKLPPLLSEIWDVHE
Method: as §1, §2, §3

Row | Structure (SMILES) | EC50 [1] [nM] | EC50 [2] [nM] | behavior in FRET assay [2] | EC50 [3] [nM] | EC50 [4] [nM] | EC50 [5] [nM]
1 | Cc1ccc2ccccc2c1[S+]([O-])N(Cc1ccc(-c2cccc(C(C)(C)C(=O)O)c2)cc1)Cc1ccc(C(F)(F)F)o1 (stereo not drawn) [Example 27, 2-Methyl-2-(4′-((((2-methylnaphthalen-1-yl)sulfinyl)((5-(trifluoromethyl)furan-2-yl)methyl)amino)methyl)-[1,1′-biphenyl]-3-yl)propanoic acid] |  | 100 to 1000 | ia |  | < 100 | < 100
2 | Cc1cc(C)c(S(=O)(=O)N(Cc2ccc(C(F)(F)F)o2)Cc2sc(-c3cccc(C(C)(C)C(=O)O)c3)cc2Cl)c(C)c1 [10/6] |  | 1000 to 10000 | ag |  | < 100 | 100 to 1000
3 | Cc1nn2cccnc2c1S(=O)(=O)N(Cc1ccc(-c2cccc(C(C)(C)C(=O)O)c2)cc1)Cc1ccc(C(F)(F)F)o1 [10/20] |  | 100 to 1000 | ag |  | < 100 | 100 to 1000
4 | COc1ccc2cccnc2c1S(=O)(=O)N(Cc1ccc(-c2cccc(C(C)(C)C(=O)O)c2)cc1)Cc1ccc(C(F)(F)F)o1 [10/19] |  | 100 to 1000 | ag |  | < 100 | < 100

Further lines, results first:

Row | EC50 [1] [nM] | EC50 [2] [nM] | behavior in FRET assay [2] | EC50 [3] [nM] | EC50 [4] [nM] | EC50 [5] [nM] | Structure (SMILES)
5 | < 100 | 100 to 1000 | ia | 100 to 1000 |  |  | Cc1cc(C)c(S(=O)(=O)N(Cc2ccc(-c3cncc(C(C)(C)C(=O)O)c3)cc2)Cc2ccc(C(F)(F)F)o2)c(C)c1 [11/18]
6 |  | 100 to 1000 | ia |  | < 100 | < 100 | CC(C)(C(=O)O)c1cccc(-c2ccc(CN(Cc3ccc(C(F)(F)F)o3)S(=N)(=O)c3cccc4ccccc34)cc2)c1 (stereo not drawn) [Example 26, 2-Methyl-2-(4′-((N-((5-(trifluoromethyl)furan-2-yl)methyl)naphthalene-1-sulfonoamid-imidamido)methyl)-[1,1′-biphenyl]-3-yl)propanoic acid]
